In ChEMBL document CHEMBL5331145, “Discovery of a Novel Bifunctional Steroid Analog, YXG-158, as an Androgen Receptor Degrader and CYP17A1 Inhibitor for the Treatment of Enzalutamide-Resistant Prostate Cancer” (J Med Chem, 2023):

Legend:
LNCaP = assay: Antiproliferative activity against human LNCaP cells incubated for 6 days by CellTiter-Glo assay; type: functional, cell-based
[1] = biological target: Voltage-gated inwardly rectifying potassium channel KCNH2 (Homo sapiens, UniProt Q12809); assay: Inhibition of human ERG by patch clamp assay; type: toxicity
Voltage-gated inwardly rectifying potassium channel KCNH2, sequence (Q12809 whole entry): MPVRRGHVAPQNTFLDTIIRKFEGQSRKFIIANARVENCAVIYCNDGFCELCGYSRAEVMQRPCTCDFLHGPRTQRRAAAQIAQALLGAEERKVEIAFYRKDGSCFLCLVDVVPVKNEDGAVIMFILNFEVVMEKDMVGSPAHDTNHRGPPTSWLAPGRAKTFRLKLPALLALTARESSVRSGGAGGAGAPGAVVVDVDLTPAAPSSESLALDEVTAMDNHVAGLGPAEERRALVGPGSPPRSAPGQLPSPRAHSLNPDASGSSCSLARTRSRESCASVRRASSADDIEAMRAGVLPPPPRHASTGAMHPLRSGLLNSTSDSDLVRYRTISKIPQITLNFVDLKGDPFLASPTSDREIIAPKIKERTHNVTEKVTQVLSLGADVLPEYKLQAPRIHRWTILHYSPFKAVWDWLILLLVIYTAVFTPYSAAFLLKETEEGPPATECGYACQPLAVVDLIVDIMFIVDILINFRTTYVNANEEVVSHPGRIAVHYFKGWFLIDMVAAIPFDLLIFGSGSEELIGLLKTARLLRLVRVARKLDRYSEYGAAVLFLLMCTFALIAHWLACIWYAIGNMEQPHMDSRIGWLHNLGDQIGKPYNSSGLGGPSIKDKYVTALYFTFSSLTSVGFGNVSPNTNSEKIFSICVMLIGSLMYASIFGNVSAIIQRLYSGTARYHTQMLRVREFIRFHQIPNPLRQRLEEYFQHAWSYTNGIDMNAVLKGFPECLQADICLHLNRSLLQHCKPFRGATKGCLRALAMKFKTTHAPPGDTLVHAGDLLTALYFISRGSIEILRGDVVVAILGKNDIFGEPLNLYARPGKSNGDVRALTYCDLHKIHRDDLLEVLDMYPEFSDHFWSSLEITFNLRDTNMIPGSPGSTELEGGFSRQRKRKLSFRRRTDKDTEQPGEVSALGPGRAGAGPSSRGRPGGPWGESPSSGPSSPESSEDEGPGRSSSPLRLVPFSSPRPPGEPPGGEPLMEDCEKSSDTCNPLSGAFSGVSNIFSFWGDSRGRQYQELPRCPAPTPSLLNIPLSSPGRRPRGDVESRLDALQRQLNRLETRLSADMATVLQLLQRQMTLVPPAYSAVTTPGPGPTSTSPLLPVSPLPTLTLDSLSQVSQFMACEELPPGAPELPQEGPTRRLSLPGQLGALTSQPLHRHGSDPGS

[2] = biological target: T1, Androgen receptor (Homo sapiens) (UniProt P10275); assay: Potency index, ratio of galeterone DC50 to test compound DC50 for induction of androgen receptor degradation in human LNCaP cells; type: cell-based
T1 sequence (whole entry): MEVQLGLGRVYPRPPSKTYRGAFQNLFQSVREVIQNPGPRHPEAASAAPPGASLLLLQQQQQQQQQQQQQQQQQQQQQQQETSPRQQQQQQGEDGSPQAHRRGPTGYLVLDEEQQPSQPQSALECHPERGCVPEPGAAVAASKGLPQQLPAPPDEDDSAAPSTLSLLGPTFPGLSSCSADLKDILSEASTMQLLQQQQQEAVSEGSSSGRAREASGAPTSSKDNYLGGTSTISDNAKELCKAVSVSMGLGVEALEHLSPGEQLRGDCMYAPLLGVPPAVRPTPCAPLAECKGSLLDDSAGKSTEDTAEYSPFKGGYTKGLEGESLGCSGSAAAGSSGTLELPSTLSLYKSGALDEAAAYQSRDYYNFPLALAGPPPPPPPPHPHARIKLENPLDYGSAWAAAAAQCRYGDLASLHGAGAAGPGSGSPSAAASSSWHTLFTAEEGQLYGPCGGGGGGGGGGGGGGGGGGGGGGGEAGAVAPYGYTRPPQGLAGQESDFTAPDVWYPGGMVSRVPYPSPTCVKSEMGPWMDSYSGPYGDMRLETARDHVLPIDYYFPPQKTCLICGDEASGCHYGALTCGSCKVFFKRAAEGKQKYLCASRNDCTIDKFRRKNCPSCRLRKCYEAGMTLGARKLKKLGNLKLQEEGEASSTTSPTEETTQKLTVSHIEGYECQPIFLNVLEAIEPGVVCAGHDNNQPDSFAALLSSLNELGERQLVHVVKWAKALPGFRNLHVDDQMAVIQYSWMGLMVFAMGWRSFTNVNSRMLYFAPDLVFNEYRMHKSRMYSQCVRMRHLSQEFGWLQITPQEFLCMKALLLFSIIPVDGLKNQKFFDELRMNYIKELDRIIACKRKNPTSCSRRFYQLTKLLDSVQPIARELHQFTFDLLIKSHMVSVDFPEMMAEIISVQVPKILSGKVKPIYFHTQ

Androgen receptor [3] = biological target: T2, Androgen receptor (Homo sapiens, UniProt P10275); assay: Induction of androgen receptor degradation in human LNCaP cells incubated for 24 hrs by ELISA; type: cell-based
T2 sequence (P10275 whole entry): T1 sequence (whole entry)

[4] = Cmax in Sprague-Dawley rat at 10 mg/kg, po measured upto 24 hrs by LC-MS/MS analysis; type: ADME, organism-based; design: dose 10 mg/kg, time < 24 hrs, route po; conditions: in vivo
Androgen receptor [5] = biological target: T2, Androgen receptor; assay: Antagonist activity at wild type androgen receptor expressed in HEK293 cells assessed as reduction in DHT-induced transcriptional activation of androgen receptor incubated for 24 hrs by Steady-Glo assay; type: cell-based
[6] = Half life in Sprague-Dawley rat at 10 mg/kg, po measured upto 24 hrs by LC-MS/MS analysis; type: ADME, organism-based; conditions: in vivo
[7] = biological target: T3, Steroid 17-alpha-hydroxylase/17,20 lyase (Homo sapiens, UniProt P05093); assay: Inhibition of recombinant human CYP17A1 using progesterone as substrate incubated for 5 mins in presence of NADPH by LC-MS/MS analysis; type: ADME
T3 sequence (P05093 whole entry): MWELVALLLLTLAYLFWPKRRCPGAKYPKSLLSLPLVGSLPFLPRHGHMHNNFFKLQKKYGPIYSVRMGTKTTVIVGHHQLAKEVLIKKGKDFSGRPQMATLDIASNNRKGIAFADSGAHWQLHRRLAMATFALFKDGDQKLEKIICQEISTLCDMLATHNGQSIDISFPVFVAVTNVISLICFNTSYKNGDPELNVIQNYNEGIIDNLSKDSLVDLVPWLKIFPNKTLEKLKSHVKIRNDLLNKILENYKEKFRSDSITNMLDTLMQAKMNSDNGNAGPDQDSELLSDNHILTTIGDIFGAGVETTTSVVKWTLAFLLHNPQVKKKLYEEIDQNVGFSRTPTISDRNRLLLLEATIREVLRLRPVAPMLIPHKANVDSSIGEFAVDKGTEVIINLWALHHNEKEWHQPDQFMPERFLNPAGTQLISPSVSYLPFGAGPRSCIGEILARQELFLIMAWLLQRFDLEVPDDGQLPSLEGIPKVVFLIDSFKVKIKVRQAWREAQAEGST

[8] = AUC(0 to t) in Sprague-Dawley rat at 10 mg/kg, po measured upto 24 hrs by LC-MS/MS analysis; type: ADME, organism-based; conditions: in vivo
[9] = Tmax in Sprague-Dawley rat at 10 mg/kg, po measured upto 24 hrs by LC-MS/MS analysis; type: ADME, organism-based; conditions: in vivo

SMILES	IC50 (LNCaP) [nM]	IC50 [1] [nM]	further results
CC(O)c1cn(C2=CCC3C4CC=C5C[C@@H](NC(=O)c6ccnnc6)CC[C@]5(C)C4CC[C@]23C)cn1 (some centres not stated)	1830		
Cc1cn(C2=CCC3C4CC=C5C[C@@H](NC(=O)n6ccnc6)CC[C@]5(C)C4CC[C@]23C)cn1 (some centres not stated)	6550		
C[C@]12CC[C@H](NC(=O)c3ccnnc3)CC1=CCC1C2CC[C@]2(C)C(n3cnc(Br)c3)=CCC12 (some centres not stated)	1490		
CCc1cn(C2=CCC3C4CC=C5C[C@@H](NC(=O)c6ccnnc6)CC[C@]5(C)C4CC[C@]23C)cn1 (some centres not stated)	427	6580	
C[C@]12CC[C@H](NC(=O)c3ccnnc3)CC1=CCC1C2CC[C@]2(C)C(n3cnc(C(F)(F)F)c3)=CCC12 (some centres not stated)	819		
COc1ccc(C(=O)N[C@H]2CC[C@@]3(C)C(=CCC4C3CC[C@]3(C)C(n5cnc(C)c5)=CCC43)C2)cc1 (some centres not stated)	> 10000		
COc1cn(C2=CCC3C4CC=C5C[C@@H](NC(=O)c6ccncc6)CC[C@]5(C)C4CC[C@]23C)cn1 (some centres not stated)	436	4070	
CC(=O)c1cn(C2=CCC3C4CC=C5C[C@@H](NC(=O)c6ccnnc6)CC[C@]5(C)C4CC[C@]23C)cn1 (some centres not stated)	1380		
Cc1cn(C2=CCC3C4CC=C5C[C@@H](NS(=O)(=O)c6ccc(C#N)cc6)CC[C@]5(C)C4CC[C@]23C)cn1 (some centres not stated)	3650		
Cc1cn(C2=CCC3C4CC=C5C[C@@H](NC(=O)c6ccncn6)CC[C@]5(C)C4CC[C@]23C)cn1 (some centres not stated)	1240		
CC(C)(O)c1cn(C2=CCC3C4CC=C5C[C@@H](NC(=O)c6ccnnc6)CC[C@]5(C)C4CC[C@]23C)cn1 (some centres not stated)	4630		
CC(C)c1cn(C2=CCC3C4CC=C5C[C@@H](NC(=O)c6ccnnc6)CC[C@]5(C)C4CC[C@]23C)cn1 (some centres not stated)	958	> 40000	
Cc1cn(C2=CCC3C4CC=C5C[C@@H](NC(=O)c6ccc(S(C)(=O)=O)cc6)CC[C@]5(C)C4CC[C@]23C)cn1 (some centres not stated)	527	> 40000	Ratio [2]: 2.5; EC50 (Androgen receptor [3]): 1370 nM
Cc1cn(C2=CCC3C4CC=C5C[C@@H](NC(=O)c6ccncc6)CC[C@]5(C)C4CC[C@]23C)cn1 (some centres not stated)	341	6470	Cmax [4]: 2670 ng/mL; IC50 (Androgen receptor [5]): 612 nM; half-life [6]: 2.8 h; EC50 (Androgen receptor [3]): 2840 nM; IC50 [7]: 2590 nM; AUCt [8]: 24800 h/ng/mL; Tmax [9]: 2.17 h
CC(C)c1cn(C2=CCC3C4CC=C5C[C@@H](NC(=O)c6ccncc6)CC[C@]5(C)C4CC[C@]23C)cn1 (some centres not stated)	734	15000	Ratio [2]: 2.5; EC50 (Androgen receptor [3]): 4760 nM
